pIC50: −log10 of the molar value.
Tested on: HBsAg
Test: HBsAg assay (CLIA) in HepG2.2.15 cells
Format: cell-based, HBV
Details: Hepatitis B virus, HepG2.2.15, read-out: IC50 (HBsAg secretion)
Procedure: HepG2.2.15 cells (Acs et al. Proc Natl Acad Sci USA, 84, (1987), 4641-4), a constitutively HBV-expressing cell line were cultured in DMEM+Glutamax-I medium (Invitrogen, Carlsbad, Calif., USA), supplemented with 10% fetal bovine serum (Invitrogen) and G418 (Invitrogen) at a final concentration of 200 mg/L and maintained in 5% CO2 at 37° C.
HepG2.2.15 cells were seeded in duplicate into white, 96-well plates at 1.5×10^4 cells/well. The cells were treated with a three-fold serial dilution series of the compounds in DMSO. The final DMSO concentration in all wells was 1% and DMSO was used as no drug control.
The HBsAg chemiluminescence immunoassay (CLIA) kit (Autobio Diagnostics Co., Zhengzhou, China, Catalog number: CL0310-2) was used to measure the levels of secreted HBV antigens semi-quantitatively. For the detection 50 μL/well culture supernatant was used and HBsAg was quantified using HBsAg chemiluminescence immunoassay (CLIA) kit (Autobio Diagnostics Co., Zhengzhou, China, Catalog number: CL0310-2), 50 μL of the supernatant was transferred to the CLIA assay plate and 50 μL of enzyme conjugate reagent was added into each well. The plates were sealed and gently agitated for 1 hour at room temperature. The supernatant-enzyme-mixture was discarded and wells were washed 6 times with 300 μL of PBS. The residual liquid was removed by plating the CLIA plate […] on absorbent tissue paper. 25 μL of substrates A and B were added to each well. Luminance was measured using a luminometer (Mithras LB 940 Multimode Microplate Reader) after 10 minutes incubation, Dose-response curves were generated and the IC50 value was extrapolated by using the E-WorkBook Suite (ID Business Solutions Ltd., Guildford, UK). The IC50 was defined as the compound concentration (or conditioned media log dilution) at which HBsAg secretion was reduced by 50% compared to the no drug control.
The compounds of the present invention were tested for their capacity to inhibit HBsAg as described herein. The Examples were tested in the above assay and found to have IC50 of about 0.001 μM to about 50.0 μM.

SMILES | pIC50
COc1cc2c(cc1OC)-c1cc(=O)c(C(=O)O)cn1CCC2 [Example 1, 10,11-Dimethoxy-2-oxo-7,8-dihydro-6H-pyrido[2,1-a][2]benzazepine-3-carboxylic acid] | 4.45
CCC1CCc2cc(OCc3ccccc3)c(OC)cc2-c2cc(=O)c(C(=O)O)cn21 (stereo not shown) [Example 2, 10-Benzyloxy-6-ethyl-11-methoxy-2-oxo-7,8-dihydro-6H-pyrido[2,1-a][2]benzazepine-3-carboxylic acid] | 5.97
CCC1CCc2cc(OCCCOC)c(OC)cc2-c2cc(=O)c(C(=O)O)cn21 (stereo not shown) [Example 3, 6-Ethyl-11-methoxy-10-(3-methoxypropoxy)-2-oxo-7,8-dihydro-6H-pyrido[2,1-a][2]benzazepine-3-carboxylic acid] | 6.38
CCC1CCc2cc(OCCCCCCNC(=O)OC(C)(C)C)c(OC)cc2-c2cc(=O)c(C(=O)O)cn21 (stereo not shown) [Example 4, 10-[6-(Tert-butoxycarbonylamino)hexoxy]-6-ethyl-11-methoxy-2-oxo-7,8-dihydro-6H-pyrido[2,1-a][2]benzazepine-3-carboxylic acid] | 6.21
CCC1CCc2cc(OCCCCCCN)c(OC)cc2-c2cc(=O)c(C(=O)O)cn21 (stereo not shown) [Example 5, 10-(6-Aminohexoxy)-6-ethyl-11-methoxy-2-oxo-7,8-dihydro-6H-pyrido[2,1-a][2]benzazepine-3-carboxylic acid] | 6.22
CCC1CCc2cc(OCCCCCCNC(C)=O)c(OC)cc2-c2cc(=O)c(C(=O)O)cn21 (stereo not shown) [Example 6, 10-(6-Acetamidohexoxy)-6-ethyl-11-methoxy-2-oxo-7,8-dihydro-6H-pyrido[2,1-a][2]benzazepine-3-carboxylic acid] | 4.91
CCC1CCc2cc(OCCCCCCNS(C)(=O)=O)c(OC)cc2-c2cc(=O)c(C(=O)O)cn21 (stereo not shown) [Example 7, 6-Ethyl-10-[6-(methanesulfonamido)hexoxy]-11-methoxy-2-oxo-7,8-dihydro-6H-pyrido[2,1-a][2]benzazepine-3-carboxylic acid] | 5.23
CCC1CCc2cc(OCCCSC)c(OC)cc2-c2cc(=O)c(C(=O)O)cn21 (stereo not shown) [Example 8, 6-Ethyl-11-methoxy-10-(3-methylsulfanylpropoxy)-2-oxo-7,8-dihydro-6H-pyrido[2,1-a][2]benzazepine-3-carboxylic acid] | 5.72
CCC1CCc2cc(OCCCS(C)(=O)=O)c(OC)cc2-c2cc(=O)c(C(=O)O)cn21 (stereo not shown) [Example 9, 6-Ethyl-11-methoxy-10-(3-methylsulfonylpropoxy)-2-oxo-7,8-dihydro-6H-pyrido[2,1-a][2]benzazepine-3-carboxylic acid] | 5.97
CCC1CCc2cc(OCC(F)(F)F)c(OC)cc2-c2cc(=O)c(C(=O)O)cn21 (stereo not shown) [Example 10, 6-Ethyl-11-methoxy-2-oxo-10-(2,2,2-trifluoroethoxy)-7,8-dihydro-6H-pyrido[2,1-a][2]benzazepine-3-carboxylic acid] | 6.25
